# “Also recorded” adds a separate entry of the source.
# How the values were obtained:
# PGP1a [1] = target: PGP1a (Homo sapiens, UniProt P08183); assay: Biological activity of exemplary compounds (Activity 1 high affinity site, Activity 2 low affinity site); conditions: for Activity 2: high capacity, low affinity binding site; for Activity 1: low capacity, high affinity binding site
# PGP1a [2] = assay: Vanadate-sensitive PGP ATPase activity in PGP membranes; format: biochemical; conditions: for Inhibition of the ATPase associated with PGP1a: semi-quantitative assay
# Method: The test substances were incubated in the membranes and supplemented with MgATP, with and without sodium orthovanadate present. Orthovanadate inhibits PGP by trapping MgADP in the nucleotide binding site. Thus, the ATPase activity measured in the presence of orthovanadate represents non-PGP ATPase activity and was subtracted from the activity generated without orthovanadate to yield vanadate-sensitive ATPase activity.
# ATPase assays were conducted in 96-well microtiter plates. A 0.06 ml reaction mixture containing 40 μg PGP membranes, test substance, and 4 mM MgATP, in buffer containing 50 mM Tris-MES, 2 mM EGTA, 50 mM KCl, 2 mM dithiothreitol, and 5 mM sodium azide, plus organic solvent was incubated at 37° C. for 20 minutes. […] Identical reaction mixtures containing 100 μM sodium orthovanadate were assayed in parallel. The reactions were stopped by the addition of 30 μl of 10% SDS+Antifoam A. The incubations were followed with addition of 200 μl of 35 mM Ammonium Molybdate in 15 mM Zinc Acetate:10% Ascorbic Acid (1:4) and incubated for an additional 20 minutes at 37° C. Additionally, 0.06 ml aliquots of potassium phosphate standards prepared in the buffer described above, were incubated in the plates containing the test and control substances, with SDS and detection reagent added. The liberation of inorganic phosphate was detected by its absorbance at 800 nm and quantitated by comparing the absorbance to a phosphate standard curve. The concentration dependence of the PGP was analyzed for evidence of saturation of PGP-ATPase activity, and apparent kinetic parameters were calculated by non-linear regression.
# mice [3] = assay: Tolerance to oxycodone in mice, parallel experiments; format: in vivo
# human PGP = human PGP (Homo sapiens, UniProt P08183); assay: Inhibition of PGP-mediated [3H]-digoxin transport in LLC-PK1 cell monolayers expressing human PGP cDNA (15B-J); conditions: for % Inhibition of Digoxin Transport: 5 μM [3H]-digoxin, 90 min
# human PGP, sequence (P08183 whole entry): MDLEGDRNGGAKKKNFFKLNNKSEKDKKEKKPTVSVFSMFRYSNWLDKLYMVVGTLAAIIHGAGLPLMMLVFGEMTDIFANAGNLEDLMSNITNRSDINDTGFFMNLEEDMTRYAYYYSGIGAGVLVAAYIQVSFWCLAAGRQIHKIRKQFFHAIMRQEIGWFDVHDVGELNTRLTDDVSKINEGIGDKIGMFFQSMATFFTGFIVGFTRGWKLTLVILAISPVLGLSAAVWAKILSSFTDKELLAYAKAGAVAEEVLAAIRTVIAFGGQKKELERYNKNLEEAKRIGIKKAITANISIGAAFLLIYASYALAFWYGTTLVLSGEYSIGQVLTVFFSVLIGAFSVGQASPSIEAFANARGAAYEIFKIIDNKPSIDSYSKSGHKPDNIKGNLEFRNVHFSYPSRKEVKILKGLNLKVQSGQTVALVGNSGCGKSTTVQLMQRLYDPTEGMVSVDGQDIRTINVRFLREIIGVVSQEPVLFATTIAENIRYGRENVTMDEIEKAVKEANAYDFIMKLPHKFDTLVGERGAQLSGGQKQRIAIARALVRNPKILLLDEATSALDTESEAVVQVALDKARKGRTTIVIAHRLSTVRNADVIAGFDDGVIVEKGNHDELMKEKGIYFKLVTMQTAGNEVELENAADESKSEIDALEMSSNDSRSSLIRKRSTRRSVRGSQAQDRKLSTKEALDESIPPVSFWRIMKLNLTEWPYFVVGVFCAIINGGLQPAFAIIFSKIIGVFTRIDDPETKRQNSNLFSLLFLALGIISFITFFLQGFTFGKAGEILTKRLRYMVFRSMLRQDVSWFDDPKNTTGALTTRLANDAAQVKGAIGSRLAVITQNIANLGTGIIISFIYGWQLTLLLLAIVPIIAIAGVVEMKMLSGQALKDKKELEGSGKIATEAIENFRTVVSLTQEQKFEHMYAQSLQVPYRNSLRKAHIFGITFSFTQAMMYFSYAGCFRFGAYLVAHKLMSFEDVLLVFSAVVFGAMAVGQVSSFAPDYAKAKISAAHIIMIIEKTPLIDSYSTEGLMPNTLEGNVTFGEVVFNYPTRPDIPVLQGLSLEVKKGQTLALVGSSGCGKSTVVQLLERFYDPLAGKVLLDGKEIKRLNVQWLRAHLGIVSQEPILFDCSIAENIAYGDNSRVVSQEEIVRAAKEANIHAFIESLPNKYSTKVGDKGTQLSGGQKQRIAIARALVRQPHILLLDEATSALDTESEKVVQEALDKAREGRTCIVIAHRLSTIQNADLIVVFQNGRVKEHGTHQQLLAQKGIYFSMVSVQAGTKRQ
# mice [4] = assay: Tail flick anti-nociception, naltrexone begun at day 6 in mice dosed daily with morphine (Groups A, B); format: in vivo; conditions: for Adaptation to repeated dosing (tail flick latency, words): Group 1, morphine 3 mg/kg daily alone
# Method: 40 male mice were randomized into 5 groups of eight. All mice were administered single 3 mg/kg morphine daily (b.i.d.), beginning on Day 1.
# In a second series of experiments, 40 female mice were randomized into 5 groups of eight. All mice were administered single 3 mg/kg morphine daily (b.i.d.), beginning on Day 1.
# 3 mg/kg of morphine was administered as a single bolus dose to each mouse on group 1 on a daily basis. Mice in Group 2 were also administered 3 mg/kg morphine daily.
# mice [5] = assay: Tail flick anti-nociception, naltrexone given with morphine from day 1 (Groups C, D, combined analysis); format: in vivo; parameters: Enhancement of Latency (tail flick) / Enhancement of Latency by Naltrexone (tail flick): unit not given here; conditions: Group 1: morphine 3 mg/kg only
# Method: In a third series of experiments, 40 male mice were randomized into 5 groups of eight. All mice were administered single 3 mg/kg morphine daily (b.i.d.), beginning on Day 1.
# In a final series of experiments, 40 female mice were randomized into 5 groups of eight. All mice were administered single 3 mg/kg morphine daily (b.i.d.), beginning on Day 1.
# [6] = male mice, 0.1 mg/kg oxycodone plus 1 ng/kg naltrexone, 1 ng/kg nalmefene or 1 pg/kg nor-BNI
# PGP1a (Homo sapiens, UniProt P08183), sequence (P08183 whole entry): as above
compound,measurement,setting,value
"Oc1ccc2c3c1O[C@H]1[C@H](O)CC[C@@]4(O)[C@@H](C2)N(CC2CC2)CC[C@]314 [6-β-Naltrexol, 6-β-naltrexol]",Activity 2,PGP1a [1],100 µM
same,Activity 1,PGP1a [1],0.1 nM
"C=C1CC[C@@]2(O)[C@H]3Cc4ccc(O)c5c4[C@@]2(CCN3CC2CC2)[C@H]1O5 [Nalmefene, nalmefene]",Vanadate-sensitive ATPase Activity,PGP1a [2]; 30 μM,2.3 nmol/mg/min
same,Vanadate-sensitive ATPase Activity,PGP1a [2]; 100 μM,3.2 nmol/mg/min
same,Inhibition of the ATPase associated with PGP1a,PGP1a [2],shown to inhibit
same,Activity 2,PGP1a [1],100 µM
same,Activity 1,PGP1a [1],0.3 nM
same,Development of tolerance to oxycodone,mice [3]; [6],did not develop tolerance
same,% Inhibition of Digoxin Transport,human PGP; 0.0001 μM test substance,5.2%
same,% Inhibition of Digoxin Transport,human PGP; 0.0003 μM test substance,7.2%
same,% Inhibition of Digoxin Transport,human PGP; 0.001 μM test substance,2.8%
same,% Inhibition of Digoxin Transport,human PGP; 0.003 μM test substance,5.1%
same,% Inhibition of Digoxin Transport,human PGP; 0.01 μM test substance,3.9%
same,% Inhibition of Digoxin Transport,human PGP; 0.03 μM test substance,−7.2%
same,% Inhibition of Digoxin Transport,human PGP; 0.1 μM test substance,−0.3%
same,% Inhibition of Digoxin Transport,human PGP; 0.3 μM test substance,−5.6%
same,% Inhibition of Digoxin Transport,human PGP; 1 μM test substance,−2.6%
same,Inhibition of digoxin transport,human PGP; increasing concentration between 3 and 100 μM,increasingly inhibited
"C=CCN1CC[C@]23c4c5ccc(O)c4O[C@H]2C(=O)CC[C@@]3(O)[C@H]1C5 [Naloxone, naloxone]",Vanadate-sensitive ATPase Activity,PGP1a [2]; 1 μM,0.4 nmol/mg/min
same,Vanadate-sensitive ATPase Activity,PGP1a [2]; 3 μM,1.7 nmol/mg/min
same,Vanadate-sensitive ATPase Activity,PGP1a [2]; 10 μM,2 nmol/mg/min
same,Vanadate-sensitive ATPase Activity,PGP1a [2]; 30 μM,1.9 nmol/mg/min
same,Vanadate-sensitive ATPase Activity,PGP1a [2]; 100 μM,1.8 nmol/mg/min
same,Inhibition of the ATPase associated with PGP1a,PGP1a [2],shown to inhibit; also recorded: only weakly inhibited
same,Activity 2,PGP1a [1],30 µM
same,Activity 1,PGP1a [1],1.0 nM
same,Ketoconazole Normalized % Inhibition of Digoxin Transport,"human PGP; 0.0001 μM nominal, normalized to 25 μM ketoconazole",6.2%
same,Ketoconazole Normalized % Inhibition of Digoxin Transport,"human PGP; 0.0003 μM nominal, normalized to 25 μM ketoconazole",8.4%
same,Ketoconazole Normalized % Inhibition of Digoxin Transport,"human PGP; 0.001 μM nominal, normalized to 25 μM ketoconazole",10%
same,Ketoconazole Normalized % Inhibition of Digoxin Transport,"human PGP; 0.01 μM nominal, normalized to 25 μM ketoconazole",−4.5%
same,Ketoconazole Normalized % Inhibition of Digoxin Transport,"human PGP; 0.03 μM nominal, normalized to 25 μM ketoconazole",5.7%
same,Ketoconazole Normalized % Inhibition of Digoxin Transport,"human PGP; 0.1 μM nominal, normalized to 25 μM ketoconazole",−2.7%
same,Ketoconazole Normalized % Inhibition of Digoxin Transport,"human PGP; 1 μM nominal, normalized to 25 μM ketoconazole",7.8%
same,Inhibition of digoxin transport,human PGP; at the 30 and 100 μM concentrations,exhibited inhibitory behavior
same,Inhibition of digoxin transport,"human PGP; concentrations below 30 μM, not concentration-dependent",slightly inhibited
same,Ketoconazole Normalized % Inhibition of Digoxin Transport,human PGP; nominal 0.03 μM as printed in the fourth line (measured […]),5.7%
CN1CC[C@]23c4c5ccc(O)c4O[C@H]2[C@@H](O)C=C[C@H]3[C@H]1C5 [morphine],Tolerance,"mice [4]; 3 mg/kg daily, by Day 5",showed distinct tolerance
same,"Adaptation to repeated dosing (tail flick latency, words)","mice [4]; female mice, especially from day five onwards",show an adaptation to morphine
same,"Adaptation to repeated dosing (tail flick latency, words)",mice [4]; male mice,showed adaptation
same,Enhancement of Latency (tail flick),"mice [5]; Table 15, combined analysis (title prints Female Mice), Day 1",7.4
same,Enhancement of Latency (tail flick),"mice [5]; Table 15, combined analysis (title prints Female Mice), Day 3",3.0
same,Enhancement of Latency (tail flick),"mice [5]; Table 15, combined analysis (title prints Female Mice), Day 5",−1.2
same,Enhancement of Latency (tail flick),"mice [5]; Table 15, combined analysis (title prints Female Mice), Day 8",−3.7
same,Enhancement of Latency (tail flick),"mice [5]; Table 15, combined analysis (title prints Female Mice), Day 10",−3.3
same,Enhancement of Latency (tail flick),"mice [5]; female mice, Day 1",5.4
same,Enhancement of Latency (tail flick),"mice [5]; female mice, Day 3",−0.1
same,Enhancement of Latency (tail flick),"mice [5]; female mice, Day 5",−4.1
same,Enhancement of Latency (tail flick),"mice [5]; female mice, Day 7",−5.0
same,Enhancement of Latency (tail flick),"mice [5]; female mice, Day 10",−3.3
same,Enhancement of Latency (tail flick),"mice [5]; female mice, Day 11, single bolus 10 μg/kg naltrexone to every mouse",−5.2
same,Enhancement of Latency (tail flick),"mice [5]; male mice, Day 1",9.3
same,Enhancement of Latency (tail flick),"mice [5]; male mice, Day 3",6.2
same,Enhancement of Latency (tail flick),"mice [5]; male mice, Day 5",1.6
same,Enhancement of Latency (tail flick),"mice [5]; male mice, Day 8",−2.3
same,Enhancement of Latency (tail flick),"mice [5]; male mice, Day 10",−3.3
same,Enhancement of Latency (tail flick),"mice [5]; male mice, Day 12, single bolus 10 μg/kg naltrexone to every mouse",−4.3
"Oc1ccc2c3c1O[C@H]1c4[nH]c5c(c4C[C@@]4(O)[C@@H](C2)N(CC2CC2)CC[C@]314)C[C@@]1(O)[C@H]2Cc3ccc(O)c4c3[C@@]1(CCN2CC1CC1)[C@H]5O4 [nor-BNI, nor-binaltorphimine]",Development of tolerance to oxycodone,"mice [3]; female mice, 1 or 5 mg/kg oxycodone with 1 pg/kg, 1 ng/kg or 1 μg/kg naltrexone or 1 pg/kg nor-BNI",None of the mice developed tolerance
same,Development of tolerance to oxycodone,mice [3]; [6],did not develop tolerance

# Reference: patent US7034036B2, “Inhibitors of ABC drug transporters at the blood-brain barrier” (Pain Therapeutics, Inc., priority 2000, dated 2006)
